Results reported in patent publication US20090170862A1, “USE OF C-KIT INHIBITORS FOR THE TREATMENT OF MYELOMA” (priority 2001, published 2009).

Tests used:
MM.1S cells [1] = test: Survival / cell death of MM.1S cells in the presence of dexamethasone and IL-6; format: cell-based, human; conditions: for inhibition of survival of MM.1S cells: 24 h, dexamethasone 0.1 or 1 μM, PTK787 5 μM, p<0.001
Method: MM.1S cells are incubated for 24 h in 1% RPMI, in the presence or absence of dexamethasone (0.1 or 1 μM), PTK787 (5 μM), IL-6 (20 and 100 ng/ml) and VEGF (50 ng/ml).

MM.1S cells [2] = conditions: for inhibition of proliferation of MM.1S cells: 24 h, dexamethasone 0.1 or 1 μM, PTK787 5 μM; for inhibition of proliferation of MM.1S cells / inhibition of MM.1S proliferation with IL-6: p<0.001; for inhibition of MM.1S proliferation without IL-6: comparison arm
Method: MM cells are first starved for 12 h in RPMI-1640 media containing 2% fetal bovine serum, and then plated into 96-well microtiter plates (Costar, Cambridge, Mass.), in the presence of drug or DMSO control. Experiments are also performed in the presence or absence of VEGF165 (R and D Systems). Proliferation is measured by the incorporation of [^3H]-thymidine (NEN Products, Boston, Mass.). Specifically, cells are pulsed with [^3H]-thymidine (0.5 μCi/well) for the last 6 h of 48 h cultures, harvested onto glass filters with an automatic cell harvester (Cambridge Technology, Cambridge, Mass.), and counted using a LKB Betaplate scintillation counter (Wallac, Gaithersburg, Md.). Measurement of cell viability is performed colorimetrically by MTS assay, utilizing the CellTiter96 AQueous One Solution Reagent (Promega, Madison, Wis.). Cells are exposed to the MTS for the last 2 h of 48 h cultures, and absorbance is measured using an ELISA plate reader (Molecular Devices Corp., Sunnyvale, Calif.) at OD of 570 nm.

MM.1S cells [3] = test: Transwell cell migration assay (modified Boyden chamber); format: cell-based, human
Method: MM.1S cells are exposed to PTK787 at concentrations 0, 1, 5 and 10 μM for 4 h and then added to the upper chamber of a transwell system. To the lower wells are added either VEGF (□, 10 ng/ml) or CD40 (Δ, 10 ng/ml), and cells are allowed to migrate to the lower chamber over a 5 h period. A lower chamber without any VEGF or CD40 (∘) serves as a control. Migrated cells are counted on a Beckman Coulter counter, and a migration index is obtained as described in Example 2, below. Experiments are performed in triplicate, and standard deviation bars are shown.
The migration assay is performed in a modified Boyden chamber system; using a 24 well plate with 8 μm pore size inserts. Prior to the assay, the upper and lower chambers are pre-coated with fibronectin (10 μg/ml). MM.1S cells are starved in 2% RPMI media for 6 hours prior to assay, then treated with drug or DMSO control for 4 h. MM cells (2×10^6 cells/ml) are then placed into the upper chamber of the transwell system. To the lower chamber is added RPMI (1% FBS), 0 or 10 ng/ml of VEGF165, or an activating MoAb to CD40 (10 ng/ml). The plates are then incubated at 37° C. for 6 h, and then cells in the lower chamber are harvested. The number of live migrated cells is gated and measured using a Beckman Coulter counter. A migration index is calculated to compare migration of cells relative to control. The migration index is defined herein as the percentage of live migrated cells in the sample (with or without drug, and ±VEGF), divided by the percentage of live migrated cells in the control (no drug, no VEGF).

MM cell lines = test: Proliferation of MM cell lines and patient tumor cells ([3H]-thymidine uptake); format: cell-based, human
Method: FIGS. 2 to 4. Dose-related effect of PTK787 on proliferation of MM cell lines and patient tumor cells. MM.1S, MM.1R, RPMI 8226, patient PCL cells, patient MM cells and HUVE cells were incubated in the presence of 0 (□), 1 (▪), 5 ( ? ), 10 ( ? ) and 20 ( ? ) μM of PTK787. In addition, HUVE cells are also exposed to 0.01 ( ? ), and 0.1 ( ? ) μM of drug. Proliferation is measured as a percentage of 3H-dT uptake relative to standard. The experiments are performed in triplicate, and standard deviation bars are shown.
RPMI 8226 and U266 human MM cell lines are obtained from the American Type Culture Collection (ATCC) of Rockville, Md. Patient derived MM cells are purified from patient BM samples, as described by Y. T. Tai, G. Teoh, Y. Shima, et al in J. Immunol. Methods 235:11, 2000. All human MM cell lines are cultured in RPMI-1640 media (Sigma Chemical, St. Louis, Mo.), containing 10% fetal bovine serum (FBS), 2 mmol/L L-glutamine (L-glut, GIBCO, Grand Island, N.Y.), 100 U/mL penicillin and […] streptomycin (P/S, GIBCO). MM patient cells are ≧95% CD38+, CD45RA−. Bone marrow stromal cells (BMSCs) are prepared from aspirates of MM patients as well as healthy donors as described by D. Gupta, S. Treon, Y. Shima, et al in Leukemia, 2001 and S. Gartner and H. S. Kaplan in Proc. Natl. Acad. Sci. USA 77:4756, 1980. […]

MM.1S cells [4] = test: Proliferation of MM cells in a modified Boyden chamber transwell co-culture system with BMSCs; format: cell-based, human; conditions: 5 μM; transwell co-culture with BMSCs without contact; 48 h; p<0.001
Method: Proliferation is measured in a modified Boyden chamber transwell system, using 24-well plates with a […] pore size inserts (Costar). BMSCs (4×10^4 cells/well) are plated in the lower chamber, starved, and incubated in drug as described above. MM cells (20×10^4 cells/ml) are then placed in the upper chamber (insert), and [^3H]-thymidine uptake in the individual chambers is measured at 48 h as described above.
MM.1 S cells are placed in the upper chamber of a transwell co-culture system in order to preclude direct contact between MM cells and BMSCs, but nonetheless allow for diffusion of humoral factors. Despite the lack of contact between the two cell types, uptake of [^3H]-dT by MM.1S cells incubated with BMSCs is increased by 2.2-fold (p<0.0001) at 48 h. […] When PTK787 (5 μM) is used in this co-culture system, it reduces proliferation of MM.1S cells by 62% (p<0.001).

BMSCs = test: Viability of BMSCs (trypan blue exclusion and MTS assay); format: cell-based, human; conditions: with PTK787 in the co-culture system
MM.1S cells [5] = test: Proliferation of MM.1S cells in an adhesion co-culture system with BMSCs; format: cell-based, human; conditions: 5 μM, compared to controls, p<0.0001
Method: (§1) Co-culturing of MM.1S cells or patient PCL cells with BMSCs increases growth of tumor cells by 1.8 to 2.8-fold, compared to the combination of BMSCs and MM cells alone. Addition of PTK787 (5 μM) to this co-culture system decreases proliferation of both MM.1S cells and patient PCL cells by 75% (p<0.0001), when compared to controls. These effects are observed whether the BMSCs are derived from a normal donor or patient BM.

patient PCL cells = test: Proliferation of patient PCL cells in an adhesion co-culture system with BMSCs; format: cell-based, human; conditions: 5 μM, compared to controls, p<0.0001
Method: as §1

[6] = system: human carcinomas (A431, Ls174T, HT-29, PC-3); conditions: Cancer Res. 60: 2178, 2000, cited from earlier work
[7] = system: A431, Ls174T, HT-29, PC-3 tumor cells; conditions: cited from earlier work
IL-6 = IL-6 levels in supernatants of MM.1S/BMSC co-culture (ELISA); conditions: MM.1S/BMSC co-culture supernatants, 48 h
Method: Cytokine levels are measured in supernatants from the co-culture system described above. VEGF and IL-6 concentrations are measured using commercially available ELISA kits (R&D Systems). Statistical significance of differences is determined using unpaired Student's t-test. The minimal level of significance is considered as p<0.05.
Supernatants obtained from a co-culture of MM.1S cells with BMSCs are isolated at 48 h, and IL-6 levels are measured using ELISA assay.

C[C@@H]1C[C@H]2[C@@H]3CCC4=CC(=O)C=C[C@]4(C)[C@@]3(F)[C@@H](O)C[C@]2(C)[C@@]1(O)C(=O)CO [Dexamethasone, dexamethasone, reference compound]
inhibition of survival of MM.1S cells (MM.1S cells [1]): 83% | inhibition of proliferation of MM.1S cells (MM.1S cells [2]): 58% | inhibition of MM.1S proliferation with IL-6 (MM.1S cells [2]): 16% | inhibition of MM.1S proliferation without IL-6 (MM.1S cells [2]): 70.5%

Clc1ccc(Nc2nnc(Cc3ccncc3)c3ccccc23)cc1 [PTK787]
VEGF-induced migration of MM.1S cells (MM.1S cells [3]; 1 μM PTK787, VEGF 10 ng/ml, p=0.002): reduced to baseline levels | baseline and VEGF-induced migration of MM.1S cells (MM.1S cells [3]; 5 and 10 μM PTK787): further reduces | migration of MM.1S cells induced by CD40 (MM.1S cells [3]; activating MoAb to CD40 10 ng/ml): does not significantly inhibit | proliferation of MM.1S, Dex-resistant MM.1R, RPMI, patient PCL and patient MM cells (MM cell lines; 0-20 μM PTK787, 3H-dT uptake): decreases, in a dose dependent manner | proliferation in MM cell lines with or without VEGF (MM cell lines; PTK787 (1 to 5 μM), presence or absence of VEGF): abrogates proliferation both in the presence or absence of VEGF | reduction of proliferation of MM.1S cells (MM.1S cells [4]): 62% | inhibition of survival of MM.1S cells (MM.1S cells [1]): 46% | cell death of MM.1S cells without IL-6 (MM.1S cells [1]; PTK787 alone, second value of '54% vs. 65%'): 65% | cell death of MM.1S cells with IL-6 (MM.1S cells [1]; PTK787 plus IL-6, first value of '54% vs. 65%', p<0.01): 54% | viability of BMSCs (BMSCs): 95% | decrease of proliferation of MM.1S cells (MM.1S cells [5]): 75% | decrease of proliferation of patient PCL cells (patient PCL cells): 75% | inhibition of proliferation of MM.1S cells (MM.1S cells [2]): 35% | inhibition of MM.1S proliferation with IL-6 (MM.1S cells [2]): 64.7% | inhibition of MM.1S proliferation without IL-6 (MM.1S cells [2]): 39.3% | growth of human carcinomas transplanted orthotopically into mice ([6]; A431, Ls174T, HT-29, PC-3): inhibits the growth | vessel density in the tumor tissues [6]: does reduce vessel density | direct effect on tumor cells [7]: does not have a direct effect | decrease of IL-6 concentrations (IL-6): 70%
